In ChEMBL document CHEMBL3885881, “DrugMatrix”:

Organism: Rattus norvegicus
Assay: DrugMatrix - Regimen: Daily Repeat
Type: toxicity, organism-based, Sprague-Dawley
Set-up: regimen Daily Repeat, gender Male, age 6-8 weeks
Details: in vivo, po, route oral GAVAGE, vehicle 100 % WATER; for ABSOLUTE BASOPHIL / ABSOLUTE EOSINOPHIL / ABSOLUTE LYMPHOCYTE / ABSOLUTE MONOCYTE / ABSOLUTE SEGMENTED NEUTROPHIL / BASOPHIL / EOSINOPHIL / ERYTHROCYTE COUNT / HEMATOCRIT / HEMOGLOBIN / LEUKOCYTE COUNT / LYMPHOCYTE / MEAN CORPUSCULAR HEMOGLOBIN / MEAN CORPUSCULAR HEMOGLOBIN CONCENTRATION / MEAN CORPUSCULAR VOLUME / MONOCYTE / NEUTROPHIL / NUCLEATED RED BLOOD CELLS / PLATELET COUNT: tissue Blood; for ALANINE AMINOTRANSFERASE / ALBUMIN / ALKALINE PHOSPHATASE / ASPARTATE AMINOTRANSFERASE / BLOOD UREA NITROGEN / CARBON DIOXIDE / CHLORIDE / CHOLESTEROL / CREATINE PHOSPHOKINASE / CREATININE / GLUCOSE / LACTATE DEHYDROGENASE / LIPASE / PHOSPHORUS / POTASSIUM / SODIUM / TOTAL BILIRUBIN / TOTAL PROTEIN / URIC ACID: tissue Plasma
[1] = 56 mg/kg, 120 h, dose level Low, time 5 day
[2] = 476 mg/kg, 72 h, dose level High, time 3 day
[3] = 476 mg/kg, 120 h, dose level High, time 5 day

CC[C@H]1OC(=O)[C@H](C)[C@@H](O[C@H]2C[C@@](C)(OC)[C@@H](O)[C@H](C)O2)[C@H](C)[C@@H](O[C@@H]2O[C@H](C)C[C@H](N(C)C)[C@H]2O)[C@](C)(OC)C[C@@H](C)C(=O)[C@H](C)[C@@H](O)[C@]1(C)O [CLARITHROMYCIN]
ABSOLUTE BASOPHIL [1]: 0 CELLS/uL | ABSOLUTE EOSINOPHIL [1]: 40 CELLS/uL | ABSOLUTE LYMPHOCYTE [1]: 7764 CELLS/uL | ABSOLUTE MONOCYTE [1]: 32 CELLS/uL | ABSOLUTE SEGMENTED NEUTROPHIL [1]: 364 CELLS/uL | BASOPHIL [1]: 0% | EOSINOPHIL [1]: 0.67% | ERYTHROCYTE COUNT [1]: 5.84 x10E6/uL | HEMATOCRIT [1]: 35.03% | HEMOGLOBIN [1]: 13.63 G/DL | LEUKOCYTE COUNT [1]: 8.2 x10E3/uL | LYMPHOCYTE [1]: 94.67% | MEAN CORPUSCULAR HEMOGLOBIN [1]: 23.37 pg | MEAN CORPUSCULAR HEMOGLOBIN CONCENTRATION [1]: 38.9 G/DL | MEAN CORPUSCULAR VOLUME [1]: 60.03 fL | MONOCYTE [1]: 0.33% | NEUTROPHIL [1]: 4.33% | NUCLEATED RED BLOOD CELLS [1]: 0 /100WBC | PLATELET COUNT [1]: 1127.33 x10E3/uL | ALANINE AMINOTRANSFERASE [1]: 56 u/L | ALBUMIN [1]: 3.97 G/DL | ALKALINE PHOSPHATASE [1]: 322 u/L | ASPARTATE AMINOTRANSFERASE [1]: 90.33 u/L | BLOOD UREA NITROGEN [1]: 16.67 mg/dL | CARBON DIOXIDE [1]: 34 mmol/L | CHLORIDE [1]: 98.67 MEQ/L | CHOLESTEROL [1]: 84 mg/dL | CREATINE PHOSPHOKINASE [1]: 286 u/L | CREATININE [1]: 0.11 mg/dL | GLUCOSE [1]: 141 mg/dL | LACTATE DEHYDROGENASE [1]: 125 u/L | LIPASE [1]: 13 u/L | PHOSPHORUS [1]: 11.17 mg/dL | POTASSIUM [1]: 6.34 MEQ/L | SODIUM [1]: 144.27 MEQ/L | TOTAL BILIRUBIN [1]: 0.17 mg/dL | TOTAL PROTEIN [1]: 5.97 G/DL | URIC ACID [1]: 0.73 mg/dL | ABSOLUTE BASOPHIL [2]: 0 CELLS/uL | ABSOLUTE EOSINOPHIL [2]: 46 CELLS/uL | ABSOLUTE LYMPHOCYTE [2]: 13692.67 CELLS/uL | ABSOLUTE MONOCYTE [2]: 172 CELLS/uL | ABSOLUTE SEGMENTED NEUTROPHIL [2]: 556 CELLS/uL | BASOPHIL [2]: 0% | EOSINOPHIL [2]: 0.33% | ERYTHROCYTE COUNT [2]: 5.74 x10E6/uL | HEMATOCRIT [2]: 36.57% | HEMOGLOBIN [2]: 14.2 G/DL | LEUKOCYTE COUNT [2]: 14.47 x10E3/uL | LYMPHOCYTE [2]: 94.67% | MEAN CORPUSCULAR HEMOGLOBIN [2]: 24.73 pg | MEAN CORPUSCULAR HEMOGLOBIN CONCENTRATION [2]: 38.83 G/DL | MEAN CORPUSCULAR VOLUME [2]: 63.7 fL | MONOCYTE [2]: 1% | NEUTROPHIL [2]: 4% | NUCLEATED RED BLOOD CELLS [2]: 0 /100WBC | PLATELET COUNT [2]: 1345 x10E3/uL | ALANINE AMINOTRANSFERASE [2]: 55.33 u/L | ALBUMIN [2]: 3.8 G/DL | ALKALINE PHOSPHATASE [2]: 227.33 u/L | ASPARTATE AMINOTRANSFERASE [2]: 72.33 u/L | BLOOD UREA NITROGEN [2]: 8.33 mg/dL | CARBON DIOXIDE [2]: 29.67 mmol/L | CHLORIDE [2]: 99.33 MEQ/L | CHOLESTEROL [2]: 68 mg/dL | CREATINE PHOSPHOKINASE [2]: 191.67 u/L | CREATININE [2]: 0.37 mg/dL | GLUCOSE [2]: 161 mg/dL | LACTATE DEHYDROGENASE [2]: 112 u/L | LIPASE [2]: 28.67 u/L | PHOSPHORUS [2]: 11.53 mg/dL | POTASSIUM [2]: 6.1 MEQ/L | SODIUM [2]: 142.2 MEQ/L | TOTAL BILIRUBIN [2]: 0.13 mg/dL | TOTAL PROTEIN [2]: 5.83 G/DL | URIC ACID [2]: 1.23 mg/dL | ABSOLUTE BASOPHIL [3]: 0 CELLS/uL | ABSOLUTE EOSINOPHIL [3]: 0 CELLS/uL | ABSOLUTE LYMPHOCYTE [3]: 10830 CELLS/uL | ABSOLUTE MONOCYTE [3]: 144.67 CELLS/uL | ABSOLUTE SEGMENTED NEUTROPHIL [3]: 592 CELLS/uL | BASOPHIL [3]: 0% | EOSINOPHIL [3]: 0% | ERYTHROCYTE COUNT [3]: 5.53 x10E6/uL | HEMATOCRIT [3]: 34.87% | HEMOGLOBIN [3]: 13.93 G/DL | LEUKOCYTE COUNT [3]: 11.57 x10E3/uL | LYMPHOCYTE [3]: 94% | MEAN CORPUSCULAR HEMOGLOBIN [3]: 25.2 pg | MEAN CORPUSCULAR HEMOGLOBIN CONCENTRATION [3]: 40 G/DL | MEAN CORPUSCULAR VOLUME [3]: 63.07 fL | MONOCYTE [3]: 1% | NEUTROPHIL [3]: 5% | NUCLEATED RED BLOOD CELLS [3]: 0 /100WBC | PLATELET COUNT [3]: 1171.67 x10E3/uL | ALANINE AMINOTRANSFERASE [3]: 58 u/L | ALBUMIN [3]: 3.67 G/DL | ALKALINE PHOSPHATASE [3]: 256.67 u/L | ASPARTATE AMINOTRANSFERASE [3]: 67 u/L | BLOOD UREA NITROGEN [3]: 13.33 mg/dL | CARBON DIOXIDE [3]: 34.67 mmol/L | CHLORIDE [3]: 98 MEQ/L | CHOLESTEROL [3]: 64.33 mg/dL | CREATINE PHOSPHOKINASE [3]: 178.33 u/L | CREATININE [3]: 0.18 mg/dL | GLUCOSE [3]: 126.67 mg/dL | LACTATE DEHYDROGENASE [3]: 105.33 u/L | LIPASE [3]: 11.67 u/L | PHOSPHORUS [3]: 9.63 mg/dL | POTASSIUM [3]: 6.01 MEQ/L | SODIUM [3]: 142.53 MEQ/L | TOTAL BILIRUBIN [3]: 0.13 mg/dL | TOTAL PROTEIN [3]: 5.9 G/DL | URIC ACID [3]: 0.6 mg/dL
